The term MIC denotes the lowest concentration that inhibits growth of the organism. Read a low MIC as greater potency.

≈ marks a conversion by molar mass, not a printed value.

Assay type in all cases: functional
For one assay, the system named is Klebsiella pneumoniae. As to the kind of experiment: Antibacterial activity against Klebsiella pneumoniae.
Assay [1] has as its system Pseudomonas aeruginosa. The assay can be described thus: Antibacterial activity against Pseudomonas aeruginosa ATCC 27853.
For assay [2], the system named is Staphylococcus epidermidis. As to the kind of experiment: Antibacterial activity against Staphylococcus epidermidis.
For assay [3], the system named is Staphylococcus aureus. As to the kind of experiment: Antibacterial activity against Staphylococcus aureus ATCC 25923.
The subject of another assay is Escherichia coli. As to the kind of experiment: Antibacterial activity against Escherichia coli ATCC 25922.
In assay [4] the test system is Pseudomonas aeruginosa. The assay can be described thus: Ratio MIC for ceftazidime to compound MIC for Pseudomonas aeruginosa ATCC 27853.
The test system of assay [5] is Staphylococcus aureus. The assay can be described thus: Ratio MIC for ceftazidime to compound MIC for Staphylococcus aureus ATCC 25923.

For the compound `CO/N=C(\C(=O)N[C@@H]1C(=O)N2C(C(=O)O)=C(CSc3nncs3)OC[C@H]12)c1nsc(N)n1`, the MIC with Klebsiella pneumoniae turned out to be 8 µg/mL (≈ 16 µM); against Pseudomonas aeruginosa [1], 32 µg/mL (≈ 64.2 µM); in assay [2], 16 µg/mL (≈ 32.1 µM); against Staphylococcus aureus [3] it was 64 µg/mL (≈ 128 µM); against Escherichia coli it was 64 µg/mL (≈ 128 µM).

For `CCCCCO/N=C(\C(=O)N[C@@H]1C(=O)N2C(C(=O)O)=C(CSc3nncs3)OC[C@H]12)c1nsc(N)n1`, the MIC was 32 µg/mL (≈ 57.7 µM) in the assay on Klebsiella pneumoniae; 16 µg/mL (≈ 28.8 µM) in the assay on Pseudomonas aeruginosa [1]; 64 µg/mL (≈ 115 µM) in assay [2]; 64 µg/mL (≈ 115 µM) against Staphylococcus aureus [3]; 128 µg/mL (≈ 231 µM) with Escherichia coli.

As to `Nc1nc(/C(=N/OC2CCCCC2)C(=O)N[C@@H]2C(=O)N3C(C(=O)O)=C(CSc4nncs4)OC[C@H]23)ns1`, the MIC against Klebsiella pneumoniae stood at 16 µg/mL (≈ 28.2 µM); against Pseudomonas aeruginosa [1], 16 µg/mL (≈ 28.2 µM); in assay [2], 16 µg/mL (≈ 28.2 µM); in the assay on Staphylococcus aureus [3], 128 µg/mL (≈ 226 µM); in the assay on Escherichia coli, 128 µg/mL (≈ 226 µM).

Consider `CC(C)O/N=C(\C(=O)N[C@@H]1C(=O)N2C(C(=O)O)=C(CSc3nncs3)OC[C@H]12)c1nsc(N)n1`, for which the MIC against Klebsiella pneumoniae turned out to be 1 µg/mL (≈ 1.9 µM); against Pseudomonas aeruginosa [1] it was 4 µg/mL (≈ 7.6 µM); in assay [2], 1 µg/mL (≈ 1.9 µM); against Staphylococcus aureus [3], 32 µg/mL (≈ 60.8 µM); in the assay with Escherichia coli it was 128 µg/mL (≈ 243 µM).

`CCCCCO/N=C(\C(=O)N[C@@H]1C(=O)N2C(C(=O)O)=C(CSc3nnnn3CCO)OC[C@H]12)c1nsc(N)n1`: the Ratio in the assay with Pseudomonas aeruginosa [4] is recorded as 2. Besides, the MIC was 32 µg/mL (≈ 54.9 µM) in the assay on Klebsiella pneumoniae; 4 µg/mL (≈ 6.87 µM) with Pseudomonas aeruginosa [1]; 0.125 µg/mL (≈ 0.215 µM) in assay [2]; 16 µg/mL (≈ 27.5 µM) with Staphylococcus aureus [3]; 8 µg/mL (≈ 13.7 µM) against Escherichia coli.

Turning to `Nc1nc(/C(=N/OC2CCCC2)C(=O)N[C@@H]2C(=O)N3C(C(=O)O)=C(CSc4nnnn4CCO)OC[C@H]23)ns1`, in the assay on Pseudomonas aeruginosa [4], the Ratio was found to be 2. Moreover, the MIC with Klebsiella pneumoniae amounted to 8 µg/mL (≈ 13.8 µM); in the assay with Pseudomonas aeruginosa [1], 2 µg/mL (≈ 3.44 µM); in assay [2] it was 0.125 µg/mL (≈ 0.215 µM); against Staphylococcus aureus [3], 1 µg/mL (≈ 1.72 µM); in the assay on Escherichia coli, 4 µg/mL (≈ 6.89 µM).

As to `CO/N=C(\C(=O)N[C@@H]1C(=O)N2C(C(=O)O)=C(CSc3nnnn3CCO)OC[C@H]12)c1nsc(N)n1`, in the assay on Staphylococcus aureus [5], the Ratio turned out to be 4. Moreover, the MIC against Klebsiella pneumoniae is 32 µg/mL (≈ 60.8 µM); with Pseudomonas aeruginosa [1] it was 16 µg/mL (≈ 30.4 µM); in assay [2] it was 16 µg/mL (≈ 30.4 µM); in the assay with Staphylococcus aureus [3], 0.5 µg/mL (≈ 0.95 µM); with Escherichia coli, 2 µg/mL (≈ 3.8 µM).

For the compound `Nc1nc(/C(=N/OC2CCCC2)C(=O)N[C@@H]2C(=O)N3C(C(=O)O)=C(CSc4nncs4)OC[C@H]23)ns1`, the MIC against Klebsiella pneumoniae came out at 4 µg/mL (≈ 7.24 µM); in the assay on Pseudomonas aeruginosa [1], 16 µg/mL (≈ 29 µM); in assay [2] it was 8 µg/mL (≈ 14.5 µM); against Staphylococcus aureus [3], 128 µg/mL (≈ 232 µM); against Escherichia coli, 128 µg/mL (≈ 232 µM).

As for `CC(C)CCO/N=C(\C(=O)N[C@@H]1C(=O)N2C(C(=O)O)=C(CSc3nncs3)OC[C@H]12)c1nsc(N)n1`, the minimal inhibitory concentration (MIC) (with Klebsiella pneumoniae; against Pseudomonas aeruginosa [1]; in assay [2]; against Staphylococcus aureus [3]; in the assay on Escherichia coli) was 128 µg/mL (≈ 231 µM) throughout.

For the compound `Nc1nc(/C(=N/OC2CCCCC2)C(=O)N[C@@H]2C(=O)N3C(C(=O)O)=C(CSc4nnnn4CCO)OC[C@H]23)ns1`, the MIC in the assay with Klebsiella pneumoniae stood at 128 µg/mL (≈ 215 µM); in the assay with Pseudomonas aeruginosa [1], 64 µg/mL (≈ 108 µM); in assay [2] it was 64 µg/mL (≈ 108 µM); against Staphylococcus aureus [3] it was 2 µg/mL (≈ 3.36 µM); in the assay with Escherichia coli it was 32 µg/mL (≈ 53.8 µM).

As to `CC(C)CCO/N=C(\C(=O)N[C@@H]1C(=O)N2C(C(=O)O)=C(CSc3nnnn3CCO)OC[C@H]12)c1nsc(N)n1`, in the assay with Pseudomonas aeruginosa [4], the Ratio stood at 2. Besides, the minimum inhibitory concentration (MIC) in the assay with Klebsiella pneumoniae worked out at 64 µg/mL (≈ 110 µM); in the assay on Pseudomonas aeruginosa [1], 8 µg/mL (≈ 13.7 µM); in assay [2] it was 0.125 µg/mL (≈ 0.215 µM); against Staphylococcus aureus [3], 4 µg/mL (≈ 6.87 µM); against Escherichia coli, 16 µg/mL (≈ 27.5 µM).

Regarding `CCO/N=C(\C(=O)N[C@@H]1C(=O)N2C(C(=O)O)=C(CSc3nncs3)OC[C@H]12)c1nsc(N)n1`, the MIC amounted to 128 µg/mL (≈ 250 µM) in the assay on Klebsiella pneumoniae; 128 µg/mL (≈ 250 µM) in the assay with Pseudomonas aeruginosa [1]; 128 µg/mL (≈ 250 µM) in assay [2]; 64 µg/mL (≈ 125 µM) with Staphylococcus aureus [3]; 128 µg/mL (≈ 250 µM) against Escherichia coli.

Take `CC(C)(O/N=C(\C(=O)N[C@@H]1C(=O)N2C(C(=O)[O-])=C(C[n+]3ccccc3)CS[C@H]12)c1csc(N)n1)C(=O)O` [CEFTAZIDIME]: the MIC was 32 µg/mL (≈ 58.5 µM) with Klebsiella pneumoniae; 16 µg/mL (≈ 29.3 µM) in the assay with Pseudomonas aeruginosa [1]; 16 µg/mL (≈ 29.3 µM) in assay [2]; 2 µg/mL (≈ 3.66 µM) against Staphylococcus aureus [3]; 4 µg/mL (≈ 7.32 µM) against Escherichia coli.

For `CCO/N=C(\C(=O)N[C@@H]1C(=O)N2C(C(=O)O)=C(CSc3nnnn3CCO)OC[C@H]12)c1nsc(N)n1`, the MIC was determined as 64 µg/mL (≈ 118 µM) against Klebsiella pneumoniae; 64 µg/mL (≈ 118 µM) against Pseudomonas aeruginosa [1]; 0.125 µg/mL (≈ 0.231 µM) in assay [2]; 0.5 µg/mL (≈ 0.925 µM) in the assay on Staphylococcus aureus [3]; 2 µg/mL (≈ 3.7 µM) against Escherichia coli.

For the compound `CC(C)O/N=C(\C(=O)N[C@@H]1C(=O)N2C(C(=O)O)=C(CSc3nnnn3CCO)OC[C@H]12)c1nsc(N)n1`, the MIC in the assay on Klebsiella pneumoniae was found to be 32 µg/mL (≈ 57.7 µM); in the assay on Pseudomonas aeruginosa [1], 8 µg/mL (≈ 14.4 µM); in assay [2], 0.125 µg/mL (≈ 0.225 µM); against Staphylococcus aureus [3], 0.5 µg/mL (≈ 0.902 µM); in the assay on Escherichia coli, 0.5 µg/mL (≈ 0.902 µM).

These data come from ChEMBL document CHEMBL2062516, “Design, synthesis and antibacterial activities of a series of new 2-oxaisocephems” (2012).
